What was measured:
ERK-1 kinase = molecular target: T1, ERK-1 kinase (Homo sapiens, UniProt P27361); assay: Inhibition of ERK-1 kinase activity (LANCE Ultra TR-FRET); assay type: biochemical; conditions: ERK1 enzyme 0.4 nM, ATP 38.15 μM
T1 construct: purchased Invitrogen PV3311
Method: (§1) The object of this test example is to determine the inhibition effect of the compound on ERK-1 kinase activity. In vitro ERK-1 kinase analysis was carried out by using LANCE Ultra (Perkin Elmer) method. The reaction (reaction system 10 μL) was conducted by adding 2.5 μL of test compound/DMSO (final 4%, V/V, diluted to 10 concentrations (400 nM to 0.02 nM) using a 1:3 dilution scheme), 5 μL of a mixed solution of ERK1 enzyme (Invitrogen, # PV3311, final concentration: 0.4 nM) and substrate Ulight-MBP peptide (Perkin Elmer, # TRF0109-M, final concentration: 0.5 μM) formulated with a kinase buffer (50 mM Hepes pH 7.4, 10 mM MgCl2, 1 mM EGTA, 0.01% Triton X-100, 2 mM DTT) and 2.5 μL of ATP solution (Invitrogen, # PV3227, final concentration: 38.15 μM) formulated with the same buffer successively to a 384-well plate (Perkin Elmer OPTIPLATE™) and mixing well. The reaction mixture was incubated at room temperature for 60 minutes. The reaction was stopped by adding 1× LANCE Detection buffer (PerkinElmer # CR97-100) diluted with ultra-pure water, mM EDTA (Invitrogen #15575038) and 1 nM Eu-anti-p-MBP (PerkinElmer # TRF0201-M) antibody in 10 μL/well. The plate was incubated at room temperature for 60 minutes. Excitation reading was performed on Synergy H1 Hybird Reader, H1MFD (Biotek) with an excitation wavelength of 320 nm. TR-FRET rate was calculated by dividing the acceptor emission signal (signal value at 665 nM) by the Eu donor emission signal (signal value at 615 nM). The inhibition TR-FRET rate of the well treated by the compound was calculated relative to the Max signal (DMSO control) and Min signal (no enzyme added) control wells on the plate {% inhibition rate=100−[(test compound−Min average)]/(Max average−Min average)×100}. The 10 concentrations of the compound after 4-fold dilution of the reaction system were 100 nM to 0.005 nM. Abs_IC50 value was calculated by using GraphPad prism fits percentage inhibition rate and ten-point concentration data in a 4-parameter non-linear logic formula.

ERK-2 kinase = molecular target: T2, ERK-2 kinase (Homo sapiens, UniProt P28482); assay: Inhibition of ERK-2 kinase activity (LANCE Ultra TR-FRET); assay type: biochemical; conditions: ERK-2 enzyme 0.08 nM, ATP 38.15 μM
T2 construct: purchased Invitrogen PV3313
Method: as §1, with “ERK-2” for “ERK-1”, “ERK-2” for “ERK1”, “PV3313,” for “PV3311,”, “0.08” for “0.4”, “EGTA” for “EGTA,”, “IX” for “1×”

[1] = test system: pancreatic cancer tumor cell Mia Paca 2; assay: Inhibition of tumor cell proliferation (CellTiter-Glo); assay type: cell-based; conditions: Homo sapiens, Miapaca-2 cell, 3-7 days
Method: The object of this test example is to determine the inhibition effect of the present compound on tumor cell proliferation activity. The inhibition activity of the compound on tumor cell proliferation was determined by CellTiter-Glo method, and the half inhibitory concentration IC50 of the compound for inhibiting cell proliferation activity was obtained, 50-100 μL of tumor cell suspension was inoculated in a 96-well cell culture plate with a density of 1˜5*10^4 cells/ml. The plate was incubated in an incubator for 16˜24 hours (37° C., 5% CO2). Solutions of test compounds at different concentrations obtained by gradient dilution were added to the cells in the plate. The plate was incubated in an incubator for 3-7 days (37° C., 5% CO2), 50˜100 μL of CellTiter-Glo reagent was added to each well. The plate was shaked for 10 minutes, and left to stand at room temperature for 10 minutes. The value of the chemiluminescence signal was determined by a microplate reader. The inhibition rate was calculated from the value of the chemiluminescence signal. IC50 of the compound was obtained by curve fitting based on the inhibition rate at different concentrations.
The inhibition effect of the present compound on pancreatic cancer tumor cell Mia Paca 2 proliferation activity was determined by the test, and the obtained IC50 value is shown in Table 2.

hERG potassium channel = molecular target: T3, hERG potassium channel (Homo sapiens, UniProt Q12809); assay: hERG potassium channel inhibition activity test (Qpatch, CHO-hERG cells); assay type: cell-based
T3 construct: expressed in transfected cells; host or cells: CHO-hERG cells
Method: 4.1.1 CHO-hERG cells were cultured in a 175 cm2 culture flask. After the cell density reached 60˜80%, the culture solution was removed. The cells were washed with 7 mL of PBS once, and dissociated with 3 mL of Detachin.
4.1.2 After completion of dissociation, the cells were neutralized with 7 mL of culture solution. The solution was centrifuged, and the supernate was removed. The cells were resuspended in 5 mL of culture solution. The cell indensity is ensured as […].
Single cell sealing impedance and formation of whole-cell mode were automatically performed by Qpatch instrument. After obtaining the whole-cell recording mode, the cell was clamped at −80 mV. The cell first underwent pre-voltage of −50 mV for 50 msec, then underwent depolarization stimulation at +40 mV for 5 sec, and then underwent repolarization at −50 mV for 5 sec. and then the voltage returned to −80 mV. The cell underwent the stimulation at the voltage every 15 sec, and the data were recorded for 2 min, then extracellular fluid was administrated, and then the data were recorded for 5 min. Then, the administration process begun. The concentration of the test compound started from the lowest concentration, each test concentration was administrated for 2.5 min. At least three cells were tested for each concentration.
4.4.1 20 mM mother liquor of the compound was diluted with extracellular fluid, 5 uL of 20 mM mother liquor of the compound was added with 2495 uL of extracellular fluid to obtain a concentration of 40 uM (500-fold dilution). The solution was subjected to a 3-fold serial dilution with extracellular fluid containing 0.2% DMSO to obtain a required final concentration.
This concentration of DMSO had no effect on hERG potassium channel.
The experimental data was analyzed by XLFit software.

T2 sequence (P28482 whole entry): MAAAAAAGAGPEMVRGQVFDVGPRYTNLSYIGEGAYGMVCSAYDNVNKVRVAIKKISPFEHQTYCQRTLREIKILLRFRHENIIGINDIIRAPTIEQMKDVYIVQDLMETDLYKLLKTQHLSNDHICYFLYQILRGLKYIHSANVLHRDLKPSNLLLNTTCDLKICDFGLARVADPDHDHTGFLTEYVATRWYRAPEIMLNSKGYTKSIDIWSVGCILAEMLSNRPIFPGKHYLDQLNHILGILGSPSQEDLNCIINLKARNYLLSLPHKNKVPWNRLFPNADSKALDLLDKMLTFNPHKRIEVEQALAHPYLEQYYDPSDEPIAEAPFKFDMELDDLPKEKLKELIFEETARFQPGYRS
T1 sequence (P27361 whole entry): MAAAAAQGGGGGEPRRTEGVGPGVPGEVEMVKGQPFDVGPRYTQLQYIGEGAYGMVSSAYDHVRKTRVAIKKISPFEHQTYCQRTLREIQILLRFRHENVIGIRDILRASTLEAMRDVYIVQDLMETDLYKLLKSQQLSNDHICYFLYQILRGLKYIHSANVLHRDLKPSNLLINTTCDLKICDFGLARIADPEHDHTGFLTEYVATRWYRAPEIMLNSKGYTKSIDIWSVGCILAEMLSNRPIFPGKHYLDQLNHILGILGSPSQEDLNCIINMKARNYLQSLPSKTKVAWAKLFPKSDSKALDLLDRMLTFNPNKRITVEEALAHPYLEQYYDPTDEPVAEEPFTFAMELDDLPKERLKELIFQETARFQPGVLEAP
T3 sequence (Q12809 whole entry): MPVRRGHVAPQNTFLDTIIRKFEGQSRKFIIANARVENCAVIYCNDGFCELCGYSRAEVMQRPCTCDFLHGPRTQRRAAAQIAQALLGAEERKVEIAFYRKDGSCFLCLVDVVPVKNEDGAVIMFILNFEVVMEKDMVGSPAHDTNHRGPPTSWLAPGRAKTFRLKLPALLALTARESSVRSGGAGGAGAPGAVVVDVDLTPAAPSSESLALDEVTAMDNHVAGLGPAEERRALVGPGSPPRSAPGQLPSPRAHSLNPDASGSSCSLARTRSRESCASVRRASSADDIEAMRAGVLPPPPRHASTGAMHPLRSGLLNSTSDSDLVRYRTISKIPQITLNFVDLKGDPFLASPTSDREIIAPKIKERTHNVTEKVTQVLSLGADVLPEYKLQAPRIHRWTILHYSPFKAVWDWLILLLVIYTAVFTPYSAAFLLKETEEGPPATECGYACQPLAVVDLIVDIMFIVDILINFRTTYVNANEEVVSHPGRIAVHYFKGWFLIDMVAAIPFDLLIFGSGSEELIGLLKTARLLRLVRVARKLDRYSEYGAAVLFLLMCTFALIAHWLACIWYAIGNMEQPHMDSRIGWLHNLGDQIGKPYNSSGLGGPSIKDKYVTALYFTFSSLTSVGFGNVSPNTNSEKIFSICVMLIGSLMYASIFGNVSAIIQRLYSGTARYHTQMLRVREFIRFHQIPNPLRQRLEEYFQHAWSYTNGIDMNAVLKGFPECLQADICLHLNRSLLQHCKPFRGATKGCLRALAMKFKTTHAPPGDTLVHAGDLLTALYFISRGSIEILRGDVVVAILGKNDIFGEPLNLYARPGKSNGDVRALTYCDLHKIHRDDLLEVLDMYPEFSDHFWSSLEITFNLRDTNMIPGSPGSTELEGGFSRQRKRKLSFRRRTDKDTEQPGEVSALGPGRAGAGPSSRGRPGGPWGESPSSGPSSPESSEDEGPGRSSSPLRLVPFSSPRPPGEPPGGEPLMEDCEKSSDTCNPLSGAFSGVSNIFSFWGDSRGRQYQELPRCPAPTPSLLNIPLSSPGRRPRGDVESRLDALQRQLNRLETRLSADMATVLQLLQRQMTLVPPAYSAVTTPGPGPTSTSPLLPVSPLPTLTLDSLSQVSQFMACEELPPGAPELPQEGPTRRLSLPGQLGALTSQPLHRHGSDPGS

IC50 (ERK-1 kinase)	IC50 (ERK-2 kinase)	IC50 [1]	Structure (SMILES)	Inhibition effect on cardiac hERG potassium channel (hERG potassium channel)	IC50 (hERG potassium channel; CHO-hERG cells, highest test concentration 40 uM, read-out: hERG (inhibition effect on hERG current))
0.1 nM	0.1 nM	202 nM	O=C(N[C@H](CO)c1cccc(Cl)c1)c1nc2cc3c(-c4ccncc4)n[nH]c3cc2[nH]1 [Example 28, (S)—N-(1-(3-chlorophenyl)-2-hydroxyethyl)-3-(pyridin-4-yl)-1,7-dihydroimidazo[4,5-f]indazole-6-carboxamide]		
0.19 nM	0.12 nM	61.6 nM	Cc1cccc([C@@H](CO)NC(=O)c2nc3cc4c(-c5ccncc5)n[nH]c4cc3[nH]2)c1 [Example 30, (S)—N-(2-hydroxy-1-(m-tolyl)ethyl)-(pyridin-4-yl)-1,7-dihydroimidazo[4,5-f]indazole-6-carboxamide]		
1.08 nM	1.23 nM	244 nM	Cc1cc(-c2n[nH]c3cc4[nH]c(C(=O)N[C@H](C)c5ccccc5)nc4cc23)ccn1 [Example 36, (R)-3-(2-methylpyridin-4-yl)-N-(1-phenylethyl)-1,7-dihydroimidazo[4,5-f]indazole-6-carboxamide]		
0.54 nM	0.5 nM	110 nM	C[C@@H](NC(=O)c1nc2cc3c(-c4ccncc4)n[nH]c3cc2[nH]1)c1cccc(F)c1 [Example 45, (R)—N-(1-(3-fluorophenyl)ethyl)-3-(pyridin-4-yl)-1,7-dihydroimidazo[4,5-f]indazole-6-carboxamide]		
0.29 nM	0.17 nM	55.5 nM	CNC[C@@H](NC(=O)c1nc2cc3c(-c4ccncc4)n[nH]c3cc2[nH]1)c1ccccc1 [Example 50, (S)—N-(2-(methylamino)-1-phenylethyl)-3-(pyridin-4-yl)-1,7-dihydroimidazo[4,5-f]indazole-6-carboxamide]		
0.52 nM	0.32 nM	309 nM	O=C(N[C@H](CNC1CC1)c1ccccc1)c1nc2cc3c(-c4ccncc4)n[nH]c3cc2[nH]1 [Example 54, (S)—N-(2-(cyclopropylamino)-1-phenylethyl)-3-(pyridin-4-yl)-1,7-dihydroimidazo[4,5-f]indazole-6-carboxamide]		
			O=C(Cc1ccccc1)c1nc2cc3c(-c4ccncc4)n[nH]c3cc2[nH]1 [Example 105, 2-phenyl-1-(3-(pyridin-4-yl)-1,7-dihydroimidazo[4,5-f]indazol-6-yl)ethan-1-one]	no inhibition effect	> 40 µM

From patent US20200247815A1, “PYRAZOLYL-CONTAINING TRICYCLIC DERIVATIVE, PREPARATION METHOD THEREFOR AND USE THEREOF” (Jiangsu Hansoh Pharmaceutical Group Co., Ltd., priority 2017, published 2020)
